Results taken from patent US11931424B2, “Combination MCL-1 inhibitors with anti-body drug conjugates” (Gilead Sciences, Inc., priority 2021, dated 2024).

Legend:
[1] = tested on: panel of haematalogical cancer cell lines; experiment: Compound A with BTK inhibitors, 72-hour in vitro proliferation assays; assay type: cell-based; conditions: combination Compound A × listed BTK inhibitor, 72-hour proliferation
[2] = tested on: panel of breast cancer cell lines; experiment: Compound A with targeted agents and chemotherapies, 72-hour in vitro proliferation assays; assay type: cell-based; conditions: compound A × partner, 72-hour proliferation

CC#CC(=O)N1CCC[C@H]1c1nc(-c2ccc(C(=O)Nc3ccccn3)cc2)c2c(N)nccn12 [Acalabrutinib]
Best CI ([1]; HBL-1 cells): 0.09
Best CI Level ([1]; HBL-1 cells): 55
Bliss Volume ([1]; HBL-1 cells): 4.86
HSA volume ([1]; HBL-1 cells): 9.39
Loewe Volume ([1]; HBL-1 cells): 9.09
Synergy Score ([1]; HBL-1 cells): 7.28
Best CI ([1]; OCI-Ly10 cells): 0.69
Best CI Level ([1]; OCI-Ly10 cells): 80
Bliss Volume ([1]; OCI-Ly10 cells): −1.82
HSA volume ([1]; OCI-Ly10 cells): 0.62
Loewe Volume ([1]; OCI-Ly10 cells): −0.84
Synergy Score ([1]; OCI-Ly10 cells): 1.59
Best CI ([1]; SU-DHL-2 cells): 0.39
Best CI Level ([1]; SU-DHL-2 cells): 20
Bliss Volume ([1]; SU-DHL-2 cells): 1.10
HSA volume ([1]; SU-DHL-2 cells): 1.30
Loewe Volume ([1]; SU-DHL-2 cells): 2.29
Synergy Score ([1]; SU-DHL-2 cells): 1.76
Best CI ([1]; SU-DHL-4 cells): 0.90
Best CI Level ([1]; SU-DHL-4 cells): 80
Bliss Volume ([1]; SU-DHL-4 cells): 0.66
HSA volume ([1]; SU-DHL-4 cells): −3.54
Loewe Volume ([1]; SU-DHL-4 cells): −2.10
Synergy Score ([1]; SU-DHL-4 cells): 1.02
Best CI ([1]; SU-DHL-8 cells): 0.79
Best CI Level ([1]; SU-DHL-8 cells): 20
Bliss Volume ([1]; SU-DHL-8 cells): 3.28
HSA volume ([1]; SU-DHL-8 cells): −5.31
Loewe Volume ([1]; SU-DHL-8 cells): −3.08
Synergy Score ([1]; SU-DHL-8 cells): 0.52
Best CI ([1]; TMD8 cells): 0.09
Best CI Level ([1]; TMD8 cells): 80
Bliss Volume ([1]; TMD8 cells): 2.07
HSA volume ([1]; TMD8 cells): 3.89
Loewe Volume ([1]; TMD8 cells): 2.90
Synergy Score ([1]; TMD8 cells): 3.60
Best CI ([1]; U-2932 cells): 0.49
Best CI Level ([1]; U-2932 cells): 65
Bliss Volume ([1]; U-2932 cells): 5.67
HSA volume ([1]; U-2932 cells): 7.07
Loewe Volume ([1]; U-2932 cells): 7.67
Synergy Score ([1]; U-2932 cells): 4.74

CC(=O)c1c(C)c2cnc(Nc3ccc(N4CCNCC4)cn3)nc2n(C2CCCC2)c1=O [PD-0332991]
Best CI ([2]; AU565 cell line): 1.01
Bliss Volume ([2]; AU565 cell line): −1.48
HSA volume ([2]; AU565 cell line): −4.75
Loewe Volume ([2]; AU565 cell line): −4.99
Synergy Score ([2]; AU565 cell line): 1.50
Best CI ([2]; BT-20 cell line): 1.30
Bliss Volume ([2]; BT-20 cell line): −2.05
HSA volume ([2]; BT-20 cell line): −0.62
Loewe Volume ([2]; BT-20 cell line): −1.20
Synergy Score ([2]; BT-20 cell line): 3.95
Best CI ([2]; BT-549 cell line): 1.07
Bliss Volume ([2]; BT-549 cell line): 5.11
HSA volume ([2]; BT-549 cell line): 3.60
Loewe Volume ([2]; BT-549 cell line): 5.15
Synergy Score ([2]; BT-549 cell line): 3.67
Best CI ([2]; CAL-51 cell line): 0.82
Bliss Volume ([2]; CAL-51 cell line): −3.23
HSA volume ([2]; CAL-51 cell line): −1.09
Loewe Volume ([2]; CAL-51 cell line): −1.26
Synergy Score ([2]; CAL-51 cell line): 0.38
Best CI ([2]; CAL-85-1 cell line): 0.75
Bliss Volume ([2]; CAL-85-1 cell line): −7.60
HSA volume ([2]; CAL-85-1 cell line): −8.20
Loewe Volume ([2]; CAL-85-1 cell line): −7.47
Synergy Score ([2]; CAL-85-1 cell line): 0.30
Best CI ([2]; CAL-120 cell line): 1.81
Bliss Volume ([2]; CAL-120 cell line): −0.11
HSA volume ([2]; CAL-120 cell line): −7.17
Loewe Volume ([2]; CAL-120 cell line): −6.92
Synergy Score ([2]; CAL-120 cell line): 0.11
Best CI ([2]; CAL-148 cell line): 0.21
Bliss Volume ([2]; CAL-148 cell line): −2.31
HSA volume ([2]; CAL-148 cell line): −5.69
Loewe Volume ([2]; CAL-148 cell line): −4.24
Synergy Score ([2]; CAL-148 cell line): 0.81
Best CI ([2]; CAMA-1 cell line): 0.49
Bliss Volume ([2]; CAMA-1 cell line): −4.96
HSA volume ([2]; CAMA-1 cell line): −11.74
Loewe Volume ([2]; CAMA-1 cell line): −11.95
Synergy Score ([2]; CAMA-1 cell line): 0.99
Best CI ([2]; DU-4475 cell line): 0.97
Bliss Volume ([2]; DU-4475 cell line): 0.05
HSA volume ([2]; DU-4475 cell line): −1.86
Loewe Volume ([2]; DU-4475 cell line): −0.06
Synergy Score ([2]; DU-4475 cell line): 0.30
Best CI ([2]; EVSA-T cell line): 0.77
Bliss Volume ([2]; EVSA-T cell line): −4.20
HSA volume ([2]; EVSA-T cell line): −6.37
Loewe Volume ([2]; EVSA-T cell line): −5.67
Synergy Score ([2]; EVSA-T cell line): 0.21
Best CI ([2]; HCC38): 0.19
Bliss Volume ([2]; HCC38): −13.23
HSA volume ([2]; HCC38): −17.15
Loewe Volume ([2]; HCC38): −16.79
Synergy Score ([2]; HCC38): 0.01
Best CI ([2]; HCC70): 0.68
Bliss Volume ([2]; HCC70): 4.80
HSA volume ([2]; HCC70): 3.64
Loewe Volume ([2]; HCC70): 4.83
Synergy Score ([2]; HCC70): 8.66
Best CI ([2]; HCC1143): 0.75
Bliss Volume ([2]; HCC1143): −2.16
HSA volume ([2]; HCC1143): −3.77
Loewe Volume ([2]; HCC1143): −0.95
Synergy Score ([2]; HCC1143): 1.96
Best CI ([2]; HCC1569): 0.78
Bliss Volume ([2]; HCC1569): 8.10
HSA volume ([2]; HCC1569): 4.93
Loewe Volume ([2]; HCC1569): 8.19
Synergy Score ([2]; HCC1569): 5.78
Best CI ([2]; HCC1806): 0.02
Bliss Volume ([2]; HCC1806): −1.37
HSA volume ([2]; HCC1806): −4.31
Loewe Volume ([2]; HCC1806): −1.04
Synergy Score ([2]; HCC1806): 0.99
Best CI ([2]; HCC1937): 0.28
Bliss Volume ([2]; HCC1937): 14.96
HSA volume ([2]; HCC1937): 11.05
Loewe Volume ([2]; HCC1937): 14.74
Synergy Score ([2]; HCC1937): 21.45
Best CI ([2]; HCC1954): 0.47
Bliss Volume ([2]; HCC1954): −7.91
HSA volume ([2]; HCC1954): −8.72
Loewe Volume ([2]; HCC1954): −7.32
Synergy Score ([2]; HCC1954): 1.20
Best CI ([2]; HCC2218): 1.10
Bliss Volume ([2]; HCC2218): −0.96
HSA volume ([2]; HCC2218): −1.25
Loewe Volume ([2]; HCC2218): −3.22
Synergy Score ([2]; HCC2218): 7.27
Best CI ([2]; HDQ-P1): 0.36
Bliss Volume ([2]; HDQ-P1): 0.47
HSA volume ([2]; HDQ-P1): −6.53
Loewe Volume ([2]; HDQ-P1): −11.86
Synergy Score ([2]; HDQ-P1): 0.17
Best CI ([2]; HMC-1-8): 0.47
Bliss Volume ([2]; HMC-1-8): 13.91
HSA volume ([2]; HMC-1-8): 7.82
Loewe Volume ([2]; HMC-1-8): 8.09
Synergy Score ([2]; HMC-1-8): 12.76
